Source: ChEMBL document CHEMBL5055685, “Discovery of the First Potent IDO1/IDO2 Dual Inhibitors: A Promising Strategy for Cancer Immunotherapy” (J Med Chem, 2021)
Each block holds one compound with its values, some of them ahead of it. Calls of active or inactive are those of the source. No cut-off for these calls is given here.

Legend:
[1] = molecular target: T1, Indoleamine 2,3-dioxygenase 1 (Homo sapiens, UniProt P14902); test: Inhibition of IDO1 (unknown origin) assessed as reduction in kynurenine formation using L-tryptophan as substrate by methylene blue reagent based assay
Target sequence in this assay (P14902 whole entry): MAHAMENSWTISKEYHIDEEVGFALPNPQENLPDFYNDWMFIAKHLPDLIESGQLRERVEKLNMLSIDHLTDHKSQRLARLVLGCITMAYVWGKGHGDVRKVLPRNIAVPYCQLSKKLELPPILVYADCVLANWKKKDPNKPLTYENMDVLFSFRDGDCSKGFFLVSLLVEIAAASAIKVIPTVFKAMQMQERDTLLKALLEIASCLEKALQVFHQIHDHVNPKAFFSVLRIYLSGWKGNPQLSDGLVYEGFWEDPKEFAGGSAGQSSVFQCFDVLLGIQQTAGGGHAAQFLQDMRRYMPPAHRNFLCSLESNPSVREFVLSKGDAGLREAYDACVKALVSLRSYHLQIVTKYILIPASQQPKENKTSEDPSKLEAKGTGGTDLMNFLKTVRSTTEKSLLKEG

[2] = molecular target: T2, Indoleamine 2,3-dioxygenase 2 (Homo sapiens, UniProt Q6ZQW0); test: Inhibition of IDO2 (unknown origin) assessed as reduction in kynurenine formation using L-tryptophan as substrate by methylene blue reagent based assay
T2 sequence (Q6ZQW0 whole entry): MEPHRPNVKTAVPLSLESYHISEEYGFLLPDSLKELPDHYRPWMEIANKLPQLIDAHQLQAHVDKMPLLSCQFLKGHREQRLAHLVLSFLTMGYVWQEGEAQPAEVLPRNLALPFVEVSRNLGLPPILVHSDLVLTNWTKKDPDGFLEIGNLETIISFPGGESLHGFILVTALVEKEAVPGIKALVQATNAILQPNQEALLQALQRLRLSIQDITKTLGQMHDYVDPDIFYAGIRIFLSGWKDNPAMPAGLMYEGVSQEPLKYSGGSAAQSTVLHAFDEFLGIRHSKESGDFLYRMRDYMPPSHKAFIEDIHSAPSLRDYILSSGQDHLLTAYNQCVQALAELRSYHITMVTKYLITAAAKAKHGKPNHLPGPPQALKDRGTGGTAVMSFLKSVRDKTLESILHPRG

[3] = molecular target: T1, Indoleamine 2,3-dioxygenase 1; test: Inhibition of IDO1 (unknown origin) assessed as reduction in kynurenine formation using L-tryptophan as substrate by methylene blue reagent based assay relative to control; design: concentration or dose not given beside the values; details: concentration not given here
Target sequence in this assay (P14902 whole entry, looked up): as the sequence (P14902 whole entry) above

[4] = molecular target: T3, Indoleamine 2,3-dioxygenase 2 (Homo sapiens) (UniProt Q6ZQW0); test: Inhibition of IDO2 (unknown origin) assessed as reduction in kynurenine formation using L-tryptophan as substrate by methylene blue reagent based assay relative to control; design: concentration or dose not given beside the values; details: concentration not given here
T3 sequence (whole entry): T2 sequence (Q6ZQW0 whole entry)

[5] = Inhibition of IDO1/IDO2 in IFNgamma/LPS-stimulated human PBMCs assessed as reduction in kynurenine formation pretreated with compound for 15 mins followed by IFNgamma/LPS stimulation by LC-MS/MS analysis; format: tissue-based; details: PBMC
[6] = molecular target: T1, Indoleamine 2,3-dioxygenase 1; test: Inhibition of IDO1 in IFNgamma-stimulated human HeLa cells assessed as reduction in kynurenine formation measured after 48 hrs by spectrophotometry
Target sequence in this assay (P14902 whole entry): as the sequence (P14902 whole entry) above

[7] = AUC (0 to infinity) in Sprague-Dawley rat at 5 mg/kg, iv; format: ADME, organism-based; design: time infinity, dose 5 mg/kg, route iv; details: in vivo
[8] = tested on: HT-29; test: Cytotoxicity against human HT-29 cells assessed as reduction in cell viability by CCK8 assay; format: functional, cell-based
[9] = AUC (0 to t) in Sprague-Dawley rat at 5 mg/kg, iv; format: ADME, organism-based; design: dose 5 mg/kg, route iv; details: in vivo
[10] = tested on: PBMC; test: Inhibition of IDO1/IDO2 in IFNgamma/LPS-stimulated human PBMCs assessed as reduction in kynurenine formation at 0.0001 to 10 uM pretreated with compound for 15 mins followed by IFNgamma/LPS stimulation by LC-MS/MS analysis; format: tissue-based; details: dose 0.0001-10 µM
[11] = tested on: HeLa; test: Cytotoxicity against human HeLa cells assessed as reduction in cell viability at 1 to 10 uM by CCK8 assay; format: functional, cell-based; details: dose 1-10 µM
[12] = tested on: CT26; test: Cytotoxicity against mouse CT26 cells assessed as reduction in cell viability by CCK8 assay; format: functional, cell-based
[13] = tested on: HCT-116; test: Cytotoxicity against human HCT-116 cells assessed as reduction in cell viability by CCK8 assay; format: functional, cell-based
[14] = Half life in Sprague-Dawley rat at 5 mg/kg, iv; format: ADME, organism-based; details: in vivo
[15] = Volume of distribution at steady state in Sprague-Dawley rat at 5 mg/kg, iv; format: ADME, organism-based; details: in vivo, read-out: Vdss
[16] = AUC (0 to t) in Sprague-Dawley rat at 50 mg/kg, po; format: ADME, organism-based; design: dose 50 mg/kg, route po; details: in vivo
[17] = AUC (0 to infinity) in Sprague-Dawley rat at 50 mg/kg, po; format: ADME, organism-based; design: time infinity, dose 50 mg/kg, route po; details: in vivo
[18] = Cmax in Sprague-Dawley rat at 50 mg/kg, po; format: ADME, organism-based; design: dose 50 mg/kg, route po; details: in vivo
[19] = Tmax in Sprague-Dawley rat at 50 mg/kg, po; format: ADME, organism-based; details: in vivo
[20] = Half life in Sprague-Dawley rat at 50 mg/kg, po; format: ADME, organism-based; details: in vivo
[21] = Oral bioavailability in Sprague-Dawley rat at 50 mg/kg; format: ADME, organism-based; details: in vivo
[22] = Metabolic stability in human liver microsomes assessed as rate constant; format: ADME, Microsome
[23] = Half life in human liver microsomes; format: ADME, Microsome
[24] = Intrinsic clearance in human liver microsomes; format: ADME, Microsome; details: read-out: CLH
[25] = Metabolic stability in monkey liver microsomes assessed as rate constant; format: ADME, Macaca mulatta, Microsome; details: rhesus monkey
[26] = Half life in monkey liver microsomes; format: ADME, Macaca mulatta, Microsome; details: rhesus monkey
[27] = Intrinsic clearance in monkey liver microsomes; format: ADME, Macaca mulatta, Microsome; details: rhesus monkey, read-out: CLH
[28] = Metabolic stability in dog liver microsomes assessed as rate constant; format: ADME, Canis lupus familiaris, Microsome
[29] = Half life in dog liver microsomes assessed as rate constant; format: ADME, Canis lupus familiaris, Microsome
[30] = Clearance in dog liver microsomes; format: ADME, Canis lupus familiaris, Microsome; details: read-out: CLH
[31] = Metabolic stability in rat liver microsomes assessed as rate constant; format: ADME, Microsome
[32] = Half life in rat liver microsomes; format: ADME, Microsome
[33] = Clearance in rat liver microsomes; format: ADME, Microsome; details: read-out: CLH
[34] = Metabolic stability in mouse liver microsomes assessed as rate constant; format: ADME, Microsome
[35] = Half life in mouse liver microsomes; format: ADME, Microsome
[36] = Clearance in mouse liver microsomes; format: ADME, Microsome; details: read-out: CLH
[37] = Apparent permeability across apical to basolateral side in human Caco-2 cells assessed as drug recovery; format: ADME, cell-based; details: read-out: Drug recovery
[38] = Apparent permeability across basolateral to apical side in human Caco-2 cells assessed as drug recovery; format: ADME, cell-based; details: read-out: Drug recovery
[39] = Apparent permeability across apical to basolateral side in human Caco-2 cells; format: ADME, cell-based
[40] = Apparent permeability across basolateral to apical side in human Caco-2 cells; format: ADME, cell-based
[41] = Efflux ratio of apparent permeability across basolateral to apical over apical to basolateral side in human Caco-2 cells; format: ADME, cell-based
[42] = Protein binding in human plasma assessed as fraction unbound by equilibrium dialysis; format: ADME, cell-free
[43] = Protein binding in human plasma by equilibrium dialysis; format: ADME, cell-free; details: read-out: PPB (converted)
[44] = Protein binding in monkey plasma assessed as fraction unbound by equilibrium dialysis; format: ADME, cell-free, Macaca mulatta; details: rhesus monkey
[45] = Protein binding in monkey plasma by equilibrium dialysis by equilibrium dialysis; format: ADME, cell-free, Macaca mulatta; details: rhesus monkey, read-out: PPB (converted)
[46] = Protein binding in Beagle dog plasma assessed as fraction unbound by equilibrium dialysis; format: ADME, cell-free, Canis lupus familiaris
[47] = Protein binding in Beagle dog plasma by equilibrium dialysis; format: ADME, cell-free, Canis lupus familiaris; details: read-out: PPB (converted)
[48] = Protein binding in Sprague-Dawley rat plasma assessed as fraction unbound by equilibrium dialysis; format: ADME, cell-free
[49] = Protein binding in Sprague-Dawley rat plasma by equilibrium dialysis; format: ADME, cell-free; details: read-out: PPB (converted)
[50] = Protein binding in ICR mouse plasma assessed as fraction unbound by equilibrium dialysis; format: ADME, cell-free
[51] = Protein binding in ICR mouse plasma by equilibrium dialysis; format: ADME, cell-free; details: read-out: PPB (converted)
[52] = tested on: Rattus norvegicus; test: Toxicity in rat assessed as rat death at […]; format: organism-based; details: in vivo
[53] = tested on: Rattus norvegicus; test: Toxicity in rat assessed as weight loss at […]; format: organism-based; details: in vivo
[54] = Toxicity in rat assessed as maximum tolerated dose; format: organism-based; details: in vivo
[55] = molecular target: Voltage-gated inwardly rectifying potassium channel KCNH2 (Homo sapiens, UniProt Q12809); test: Inhibition of human ERG
[56] = tested on: CT26; test: Antitumor activity against mouse CT26 cells implanted in BALB/c mouse assessed as tumor growth inhibition at 50 mg/kg, ip bid for 28 days by vernier caliper method relative to control; format: functional; details: CT26, 672 h, time 28 day, read-out: TGI
[57] = tested on: Mus musculus; test: Toxicity in BALB/c mouse implanted with mouse CT26 cells assessed as weight loss at 50 mg/kg, ip bid for 28 days; format: organism-based; details: in vivo, 672 h, time 28 day
[58] = tested on: Mus musculus; test: Toxicity in BALB/c mouse implanted with mouse CT26 cells assessed as adverse effect at 50 mg/kg, ip bid for 28 days; format: organism-based; details: in vivo, 672 h, time 28 day

Sequence of Voltage-gated inwardly rectifying potassium channel KCNH2 (Q12809 whole entry): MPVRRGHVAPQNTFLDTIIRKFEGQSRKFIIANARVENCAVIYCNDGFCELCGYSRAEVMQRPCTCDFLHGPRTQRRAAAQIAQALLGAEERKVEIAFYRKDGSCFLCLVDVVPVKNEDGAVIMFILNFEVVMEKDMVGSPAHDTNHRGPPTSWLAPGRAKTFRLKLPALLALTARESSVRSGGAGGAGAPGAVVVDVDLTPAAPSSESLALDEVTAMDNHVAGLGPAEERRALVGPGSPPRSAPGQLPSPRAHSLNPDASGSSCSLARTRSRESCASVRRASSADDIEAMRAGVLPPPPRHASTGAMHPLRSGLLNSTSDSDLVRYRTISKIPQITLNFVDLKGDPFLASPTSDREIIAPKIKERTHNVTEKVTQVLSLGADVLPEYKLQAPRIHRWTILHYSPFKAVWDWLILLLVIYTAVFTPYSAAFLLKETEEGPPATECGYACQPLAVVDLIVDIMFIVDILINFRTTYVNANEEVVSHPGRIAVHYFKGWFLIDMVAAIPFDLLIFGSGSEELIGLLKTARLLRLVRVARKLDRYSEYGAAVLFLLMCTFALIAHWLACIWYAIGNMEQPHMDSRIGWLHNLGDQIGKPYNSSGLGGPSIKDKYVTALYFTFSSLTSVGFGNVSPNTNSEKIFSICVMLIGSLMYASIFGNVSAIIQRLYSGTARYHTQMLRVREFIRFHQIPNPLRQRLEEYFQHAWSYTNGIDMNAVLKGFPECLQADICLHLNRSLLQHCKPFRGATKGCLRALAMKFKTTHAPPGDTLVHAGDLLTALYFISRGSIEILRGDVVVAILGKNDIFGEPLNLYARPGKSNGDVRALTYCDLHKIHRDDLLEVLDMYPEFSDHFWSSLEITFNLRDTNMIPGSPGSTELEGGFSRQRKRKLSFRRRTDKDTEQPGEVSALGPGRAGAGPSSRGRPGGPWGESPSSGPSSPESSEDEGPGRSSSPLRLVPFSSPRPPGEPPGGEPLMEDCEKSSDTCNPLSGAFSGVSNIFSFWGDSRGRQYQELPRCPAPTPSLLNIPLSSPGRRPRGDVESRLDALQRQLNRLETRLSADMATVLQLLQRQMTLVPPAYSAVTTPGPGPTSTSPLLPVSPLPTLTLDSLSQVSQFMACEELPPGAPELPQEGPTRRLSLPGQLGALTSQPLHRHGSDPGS

Structure (SMILES): CC(OCCO)c1cn(CCNc2nonc2/C(=N/O)Nc2ccc(F)c(Br)c2)nn1 (centres undefined)
IC50 [1]: 134 nM
IC50 [2]: 930 nM

Structure (SMILES): OCCc1cn(CCNc2nonc2/C(=N/O)Nc2ccc(F)c(Br)c2)nn1
IC50 [1]: 247 nM
IC50 [2]: 1170 nM

Structure (SMILES): CCOC(=O)N1CCC2(CC1)C[C@H](NC(=O)c1cccc3cn[nH]c13)c1cc(Br)ccc1O2
IC50 [5]: 5.4 nM

Structure (SMILES): Nc1cccc(-c2cn(CCNc3nonc3/C(=N/O)Nc3ccc(F)c(Br)c3)nn2)c1
inhibition [3]: 7%
inhibition [4]: 12%

Structure (SMILES): CCOc1cc(CNC(=O)c2ncoc2-c2ccc(OC)cc2)cc(OCC)c1OCC
IC50 [6]: 6.3 nM

Structure (SMILES): CC(O)c1cn(CCNc2nonc2/C(=N/O)Nc2ccc(F)c(Br)c2)nn1 (centres undefined)
AUC [7]: 5670 ng·h/mL
IC50 [8]: 46000 nM
AUC(0-t) [9]: 5590 ng·h/mL
IC50 [1]: 53 nM
IC50 [2]: 362 nM
inhibition [10]: Active
Activity [11]: Active
IC50 [12]: 27500 nM
IC50 [13]: 23700 nM
half-life [14]: 48 min
Vd [15]: 1.2 L/kg
AUC(0-t) [16]: 11300 ng·h/mL
AUC(0-inf) [17]: 11500 ng·h/mL
Cmax [18]: 2730 ng/mL
Tmax [19]: 25.2 min
half-life [20]: 78 min
bioavailability [21]: 20.4%
k el [22]: 4.35e-05 s⁻¹
half-life [23]: 272 min
microsomal CLint [24]: 5.22 µL/min/mg
k el [25]: 0.000168 s⁻¹
half-life [26]: 68.8 min
microsomal CLint [27]: 20.2 µL/min/mg
k el [28]: 0.00218 s⁻¹
half-life [29]: 5.31 min
microsomal CLint [30]: 261 µL/min/mg
k el [31]: 0.00218 s⁻¹
half-life [32]: 21.6 min
microsomal CLint [33]: 64.2 µL/min/mg
K [34]: 0.0168 min⁻¹
half-life [35]: 41.2 min
microsomal CLint [36]: 33.6 µL/min/mg
recovery [37]: 95.5%
recovery [38]: 116%
Papp A→B [39]: 13.8 ×10⁻⁶ cm/s
Papp B→A [40]: 80.9 ×10⁻⁶ cm/s
efflux ratio [41]: 5.9
fraction unbound [42]: 0.0192
fraction unbound [43]: 0.0192
fraction unbound [44]: 0.0371
fraction unbound [45]: 0.0371
fraction unbound [46]: 0.0239
fraction unbound [47]: 0.0239
fraction unbound [48]: 0.044
fraction unbound [49]: 0.04
fraction unbound [50]: 0.0584
fraction unbound [51]: 0.0584
Activity [52]: Non-Toxic
Activity [53]: Non-Toxic
MTD [54]: 2 mg/kg
IC50 [55]: > 30000 nM
inhibition in vivo at 50 mg/kg [56]: 66.3%
Activity [57]: Non-Toxic
Activity [58]: Non-Toxic

Structure (SMILES): OCCCCc1cn(CCNc2nonc2/C(=N/O)Nc2ccc(F)c(Br)c2)nn1
IC50 [1]: 80 nM
IC50 [2]: 1080 nM

Further lines, results first:

IC50 [1]: 73 nM
IC50 [2]: 947 nM
Structure (SMILES): CCC(O)c1cn(CCNc2nonc2/C(=N/O)Nc2ccc(F)c(Br)c2)nn1 (centres undefined)

inhibition [3]: 20.5%
inhibition [4]: 7%
Structure (SMILES): COCc1cn(CCNc2nonc2/C(=N/O)Nc2ccc(F)c(Br)c2)nn1

IC50 [1]: 132 nM
IC50 [2]: 1870 nM
Structure (SMILES): CC(C)(C)c1cn(CCNc2nonc2/C(=N/O)Nc2ccc(F)c(Br)c2)nn1

IC50 [1]: 53 nM
IC50 [2]: 958 nM
Structure (SMILES): CCC(C)(O)c1cn(CCNc2nonc2/C(=N/O)Nc2ccc(F)c(Br)c2)nn1 (centres undefined)

IC50 [1]: 115 nM
IC50 [2]: 726 nM
Structure (SMILES): CC(C)(O)c1cn(CCNc2nonc2/C(=N/O)Nc2ccc(F)c(Br)c2)nn1
